# Laboratory results published in ChEMBL document CHEMBL5608246, “Membrane-Targeting Amphiphilic Honokiol Derivatives Containing an Oxazole Moiety as Potential Antibacterials against Methicillin-Resistant Staphylococcus aureus” (J Med Chem, 2024).
# Calls of active or inactive are those of the source. The rule behind the calls is not given here.
# Key:
# Staphylococcus aureus [1] = assay: Antibacterial activity against Staphylococcus aureus ATCC 29213 incubated for 16 to 18 hrs by broth dilution method; format: functional; conditions: time 16-18 hrs
# Staphylococcus aureus [2] = assay: Antibacterial activity against methicillin resistant Staphylococcus aureus N315 incubated for 16 to 18 hrs by broth dilution method; format: functional; conditions: time 16-18 hrs
# Staphylococcus aureus [3] = assay: Antibacterial activity against methicillin resistant Staphylococcus aureus M11 incubated for 16 to 18 hrs by broth dilution method; format: functional; conditions: time 16-18 hrs
# Staphylococcus aureus [4] = assay: Antibacterial activity against methicillin resistant Staphylococcus aureus M12 incubated for 16 to 18 hrs by broth dilution method; format: functional; conditions: time 16-18 hrs
# Staphylococcus aureus [5] = assay: Antibacterial activity against methicillin resistant Staphylococcus aureus M13 incubated for 16 to 18 hrs by broth dilution method; format: functional; conditions: time 16-18 hrs
# Staphylococcus aureus [6] = assay: Antibacterial activity against methicillin resistant Staphylococcus aureus M20 incubated for 16 to 18 hrs by broth dilution method; format: functional; conditions: time 16-18 hrs
# Staphylococcus aureus [7] = assay: Antibacterial activity against methicillin resistant Staphylococcus aureus M22 incubated for 16 to 18 hrs by broth dilution method; format: functional; conditions: time 16-18 hrs
# Staphylococcus aureus [8] = assay: Antibacterial activity against methicillin resistant Staphylococcus aureus M23 incubated for 16 to 18 hrs by broth dilution method; format: functional; conditions: time 16-18 hrs
# Escherichia coli = assay: Antibacterial activity against Escherichia coli ATCC 25922 incubated for 16 to 18 hrs by broth dilution method; format: functional; conditions: time 16-18 hrs
# Staphylococcus aureus [9] = assay: Bactericidal activity against Staphylococcus aureus ATCC 29213 at 8 times MIC within 6 hrs by time kill assay; format: functional, organism-based
# Cell membrane [10] = assay: Induction of membrane permeability in methicillin resistant Staphylococcus aureus 20 at 16 to 64 ug/ml measured at 2 mins interval over 20 mins by SYTOX green staining based assay; conditions: dose 16-64 µg/ml
# Cell membrane [11] = assay: Induction of membrane permeability in methicillin resistant Staphylococcus aureus 20 assessed as broken cell membrane by measuring increased fluorescence intensity at 32 ug/ml measured at 2 mins interval over 20 mins by SYTOX green staining based assay; format: cell membranes; conditions: dose 32.0 µg/ml
# Cell membrane [12] = assay: Induction of membrane depolarization in methicillin resistant Staphylococcus aureus 20 assessed as increase in fluorescence intensity measured at 2 mins interval over 20 mins by DiSC3(5) staining based assay; conditions: dose 16-64 µg/ml
# Cell membrane [13] = assay: Induction of membrane depolarization in methicillin resistant Staphylococcus aureus 20 assessed as fold increase in fluorescence intensity at 32 times MIC measured at 2 mins interval over 20 mins by DiSC3(5) staining based assay relative to control; format: cell membranes
# Staphylococcus aureus [14] = assay: Antibacterial activity against methicillin resistant Staphylococcus aureus 20 incubated for 16 to 18 hrs in presence of 2 to 64 ug/ml cardiolipin by checkerboard broth dilution method; format: functional, organism-based; conditions: time 16-18 hrs
# Staphylococcus aureus [15] = assay: Antibacterial activity against methicillin resistant Staphylococcus aureus 20 incubated for 16 to 18 hrs in presence of 32 ug/ml phosphatidylglycerol by checkerboard broth dilution method; format: functional; conditions: time 16-18 hrs
# Staphylococcus aureus [16] = assay: Antibacterial activity against methicillin resistant Staphylococcus aureus 20 incubated for 16 to 18 hrs in presence of 32 ug/ml cardiolipin by checkerboard broth dilution method; format: functional; conditions: time 16-18 hrs
# Cell membrane [17] = assay: Induction of membrane disruption in methicillin resistant Staphylococcus aureus 20 assessed as increase in intracellular ROS level incubated for 1 hr by DCFH-DA staining based analysis; format: cell membranes; conditions: dose 2-128 µg/ml
# Staphylococcus aureus [18] = assay: Upregulation of mspA gene expression in methicillin resistant Staphylococcus aureus N315 at 4 ug/ml incubated for 4 hrs by RNA-sequencing analysis; format: functional; conditions: dose 4.0 µg/ml
# Staphylococcus aureus [19] = assay: Inhibition of enzyme activity in methicillin resistant Staphylococcus aureus N315 at 4 ug/ml incubated for 4 hrs by RNA-sequencing analysis; format: functional, organism-based; conditions: dose 4.0 µg/ml
# Staphylococcus aureus [20] = assay: Inhibition of arginine synthesis in methicillin resistant Staphylococcus aureus N315 at 4 ug/ml incubated for 4 hrs by RNA-sequencing analysis; format: functional, organism-based; conditions: dose 4.0 µg/ml
# Staphylococcus aureus [21] = assay: Inhibition of lysine synthesis in methicillin resistant Staphylococcus aureus N315 at 4 ug/ml incubated for 4 hrs by RNA-sequencing analysis; format: functional, organism-based; conditions: dose 4.0 µg/ml
# [22] = Cytotoxicity against human L02 cells assessed as survival rate at 16 ug/ml incubated for 24 hrs by CCK8 assay; format: toxicity, cell-based; conditions: at 16 µg/mL, read-out: Survival
# [23] = Toxicity in Kunming mouse assessed as skin redness at 40 to 80 mg/kg, sc measured after 24 hrs; format: organism-based; conditions: in vivo, dose 40-80 mg/kg
# [24] = Toxicity in Kunming mouse assessed as change in red blood cell counts at 20 mg/kg, sc measured after 24 hrs; format: organism-based; conditions: in vivo
# [25] = Toxicity in Kunming mouse assessed as change in hemoglobin level at 20 mg/kg, sc measured after 24 hrs; format: organism-based; conditions: in vivo
# [26] = Toxicity in Kunming mouse assessed as change in hematocrit level at 20 mg/kg, sc measured after 24 hrs; format: organism-based; conditions: in vivo
# [27] = Toxicity in Kunming mouse assessed as change in albumin level at 20 mg/kg, sc measured after 24 hrs; format: organism-based; conditions: in vivo
# [28] = Toxicity in Kunming mouse assessed as change in urea level at 20 mg/kg, sc measured after 24 hrs; format: organism-based; conditions: in vivo
# [29] = Toxicity in Kunming mouse assessed as heart abnormalities at 10 mg/kg, sc measured after 24 hrs; format: organism-based; conditions: in vivo
# [30] = Toxicity in Kunming mouse assessed as liver abnormalities at 10 mg/kg, sc measured after 24 hrs; format: organism-based; conditions: in vivo
# [31] = Toxicity in Kunming mouse assessed as spleen abnormalities at 10 mg/kg, sc measured after 24 hrs; format: organism-based; conditions: in vivo
# Staphylococcus aureus [32] = assay: Antibacterial activity against methicillin resistant Staphylococcus aureus 20 infected in Kunming mouse skin abscess model assessed as reduction in inflammatory cell infiltration in subcutaneous layer at 10 mg/kg, sc measured after 2 hrs; format: functional, organism-based
# Staphylococcus aureus [33] = assay: Antibacterial activity against methicillin resistant Staphylococcus aureus 20 infected in Kunming mouse skin abscess model assessed as reduction in bacterial load at 10 mg/kg, sc measured after 2 hrs; format: functional; design: scale not given: the % may be the effect or the level left
# Staphylococcus aureus [34] = assay: Antibacterial activity against methicillin resistant Staphylococcus aureus 20 infected in Kunming mouse skin abscess model assessed as reduction in bacterial load at 5 mg/kg, sc measured after 2 hrs; format: functional; design: scale not given: the % may be the effect or the level left
# [35] = Toxicity in Kunming mouse skin abscess model infected with methicillin resistant Staphylococcus aureus assessed as heart damage at 5 to 10 mg/kg, sc measured after 2 hrs by H and E staining based assay; format: organism-based; conditions: in vivo, dose 5-10 mg/kg
# [36] = Toxicity in Kunming mouse skin abscess model infected with methicillin resistant Staphylococcus aureus assessed as liver damage at 5 to 10 mg/kg, sc measured after 2 hrs by H and E staining based assay; format: organism-based; conditions: in vivo, dose 5-10 mg/kg
# [37] = Toxicity in Kunming mouse skin abscess model infected with methicillin resistant Staphylococcus aureus assessed as lung damage at 5 to 10 mg/kg, sc measured after 2 hrs by H and E staining based assay; format: organism-based; conditions: in vivo, dose 5-10 mg/kg
# [38] = Toxicity in Kunming mouse skin abscess model infected with methicillin resistant Staphylococcus aureus assessed as kidney damage at 5 to 10 mg/kg, sc measured after 2 hrs by H and E staining based assay; format: organism-based; conditions: in vivo, dose 5-10 mg/kg
# Cell membrane [39] = assay: Induction of membrane disruption in methicillin resistant Staphylococcus aureus 20 assessed as viable cells with intact membrane at 128 ug/ml incubated for 2 hrs by SYTO9/PI staining based flow cytometry analysis (reference value: 98.7%); format: cell membranes; conditions: dose 128.0 µg/ml
# Cell membrane [40] = assay: Induction of membrane disruption in methicillin resistant Staphylococcus aureus 20 assessed as increase in red fluorescence signal incubated for 2 hrs by SYTO9/PI staining based flow cytometry analysis; conditions: dose 8-128 µg/ml
smiles,measurement,setting,value
C=CCc1cc(-c2ccc(OCCC[N+](C)(C)CC(=O)NCCCC)c(CC=C)c2)c2oc(-c3c(Cl)cccc3Cl)nc2c1.[Br-],MIC,Staphylococcus aureus [1],2 µg/mL
same,MIC,Staphylococcus aureus [2],4 µg/mL
same,MIC,Staphylococcus aureus [3],4 µg/mL
same,MIC,Staphylococcus aureus [4],4 µg/mL
same,MIC,Staphylococcus aureus [5],8 µg/mL
same,MIC,Staphylococcus aureus [6],2 µg/mL
same,MIC,Staphylococcus aureus [7],2 µg/mL
same,MIC,Staphylococcus aureus [8],4 µg/mL
same,MIC,Escherichia coli,128 µg/mL
same,Activity,Staphylococcus aureus [9],Active
same,Activity,Cell membrane [10],Active
same,Activity,Cell membrane [11],Active
same,Activity,Cell membrane [12],Dose-Dependent Effect
same,fold change (FC),Cell membrane [13],8
same,Activity,Staphylococcus aureus [14],inactive
same,MIC,Staphylococcus aureus [15],32 µg/mL
same,MIC,Staphylococcus aureus [16],32 µg/mL
same,Activity,Cell membrane [17],Dose-Dependent Effect
same,Activity,Staphylococcus aureus [18],Active
same,Activity,Staphylococcus aureus [19],Active
same,inhibition,Staphylococcus aureus [20],Active
same,inhibition,Staphylococcus aureus [21],Active
same,"viability at 24 h, 16 ug/ml",[22],75%
same,Activity,[23],Toxic
same,Activity,[24],Non-Toxic
same,Activity,[25],Non-Toxic
same,Activity,[26],Non-Toxic
same,Activity,[27],Non-Toxic
same,Activity,[28],Non-Toxic
same,Activity,[29],Non-Toxic
same,Activity,[30],Non-Toxic
same,Activity,[31],Non-Toxic
same,Activity,Staphylococcus aureus [32],Active
same,Activity,Staphylococcus aureus [33],96.63%
same,Activity,Staphylococcus aureus [34],96.54%
same,Activity,[35],Non-Toxic
same,Activity,[36],Non-Toxic
same,Activity,[37],Non-Toxic
same,Activity,[38],Non-Toxic
same,Activity,Cell membrane [39],0%
same,Activity,Cell membrane [40],Dose-Dependent Effect
